Laboratory results taken from ChEMBL document CHEMBL5154804, “Species-Selective Targeting of Fungal Hsp90: Design, Synthesis, and Evaluation of Novel 4,5-Diarylisoxazole Derivatives for the Combination Treatment of Azole-Resistant Candidiasis” (J Med Chem, 2022).
The source made the active and inactive calls. The calls are words filed in the database; no cut-off is given here.

Assays:
[1] = Metabolic stability in human liver microsomes assessed as microsomal intrinsic clearance in presence of NADPH cofactor under shaking condition for 10 mins measured after 5 to 60 mins by LC-MS/MS analysis; type: ADME, Microsome; conditions: time 15-70 min
Candida albicans [2] = test: Potentiation of fluconazole-induced antifungal activity against fluconazole-resistant Candida albicans 103 assessed as fluconazole MIC by checker board microdilution assay; type: functional
Candida albicans [3] = test: Antibiofilm activity against Candida albicans 904 assessed as inhibition of […] metabolism within the biofilm after 48 hrs by XTT reduction assay; type: functional
Candida albicans [4] = test: Synergistic antibiofilm activity in Candida albicans 904 assessed as downregulation of EFG1 at 32 ug/ml incubated for 24 hrs in presence of fluconazole by RT-PCR analysis; type: functional, organism-based; conditions: dose 32.0 µg/ml
Candida albicans [5] = test: Synergistic antifungal activity against fluconazole-resistant Candida albicans 904 assessed as inhibition of fungal growth in presence of fluconazole by checker board microdilution assay; type: functional
Candida albicans [6] = test: Synergistic antifungal activity against fluconazole-resistant Candida albicans 100 assessed as inhibition of fungal growth in presence of fluconazole by checker board microdilution assay; type: functional
Candida albicans [7] = test: Antifungal activity against fluconazole-resistant Candida albicans 100 assessed as inhibition of fungal growth by checker board microdilution assay; type: functional
Candida albicans [8] = test: Synergistic antibiofilm activity against Candida albicans 904 assessed as inhibition of […] metabolism within the biofilm in presence of fluconazole after 48 hrs by XTT reduction assay; type: functional
Candida albicans [9] = test: Antifungal activity against fluconazole-resistant Candida albicans 632 assessed as inhibition of fungal growth by checker board microdilution assay; type: functional
[10] = Stability in human plasma assessed as half life at 120 mins by LC-MS/MS analysis; type: ADME, cell-free
MCF7 = test: Cytotoxicity against human MCF7 cell assessed as inhibition of cell growth after 24 hrs by MTT assay; type: functional, cell-based; conditions: MCF7, 24 h
CYP2D6 = CYP2D6 (Homo sapiens, UniProt P10635); test: Inhibition of CYPD6 in human liver microsome at 10 uM using dextromethorphan as substrate incubated for 10 mins in presence of NADPH cofactor by LC-MS/MS analysis; type: ADME; conditions: liver microsomes, probe dextromethorphan
Sequence of CYP2D6 (P10635 whole entry): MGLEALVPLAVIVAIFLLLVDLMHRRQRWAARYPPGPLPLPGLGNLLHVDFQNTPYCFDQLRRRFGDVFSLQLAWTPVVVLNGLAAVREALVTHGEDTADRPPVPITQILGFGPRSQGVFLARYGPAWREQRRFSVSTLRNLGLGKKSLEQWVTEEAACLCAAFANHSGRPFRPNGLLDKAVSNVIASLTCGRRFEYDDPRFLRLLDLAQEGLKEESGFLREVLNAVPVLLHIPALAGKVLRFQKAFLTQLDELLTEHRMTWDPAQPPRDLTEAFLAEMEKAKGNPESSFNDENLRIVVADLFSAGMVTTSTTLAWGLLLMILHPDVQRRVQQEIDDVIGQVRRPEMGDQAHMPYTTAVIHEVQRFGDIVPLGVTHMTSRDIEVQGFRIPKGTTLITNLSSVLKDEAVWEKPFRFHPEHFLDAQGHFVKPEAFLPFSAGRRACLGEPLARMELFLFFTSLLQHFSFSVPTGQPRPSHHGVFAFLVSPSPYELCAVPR

[11] = Cytotoxicity against mouse NIH3T3 cell assessed as inhibition of cell growth after 24 hrs by MTT assay; type: toxicity, cell-based; conditions: NIH3T3 cells
Candida albicans [12] = test: Synergetic antifungal activity against fluconazole-resistant Candida albicans 901 assessed as fractional inhibitory concentration index in presence of fluconazole by checker board microdilution assay; type: functional
Candida albicans [13] = test: Induction of morphological changes in Candida albicans 904 assessed as hyphal formation by measuring TEC1 level incubated for 4 hrs in presence of fluconazole; type: functional, organism-based
RAW264.7 = test: Cytotoxicity against mouse RAW264.7 cell assessed as inhibition of cell growth after 24 hrs by MTT assay; type: functional, cell-based; conditions: RAW264.7, 24 h
Candida albicans [14] = test: Synergistic antifungal activity against fluconazole-resistant Candida albicans 103 assessed as inhibition of fungal growth in presence of fluconazole by checker board microdilution assay; type: functional
CYP1A2 = target: T1, CYP1A2 (Homo sapiens, UniProt P05177); test: Inhibition of CYP1A2 in human liver microsome at 10 uM using phenacetin as substrate incubated for 10 mins in presence of NADPH cofactor by LC-MS/MS analysis; type: ADME; conditions: liver microsomes, probe phenacetin
T1 sequence (P05177 whole entry): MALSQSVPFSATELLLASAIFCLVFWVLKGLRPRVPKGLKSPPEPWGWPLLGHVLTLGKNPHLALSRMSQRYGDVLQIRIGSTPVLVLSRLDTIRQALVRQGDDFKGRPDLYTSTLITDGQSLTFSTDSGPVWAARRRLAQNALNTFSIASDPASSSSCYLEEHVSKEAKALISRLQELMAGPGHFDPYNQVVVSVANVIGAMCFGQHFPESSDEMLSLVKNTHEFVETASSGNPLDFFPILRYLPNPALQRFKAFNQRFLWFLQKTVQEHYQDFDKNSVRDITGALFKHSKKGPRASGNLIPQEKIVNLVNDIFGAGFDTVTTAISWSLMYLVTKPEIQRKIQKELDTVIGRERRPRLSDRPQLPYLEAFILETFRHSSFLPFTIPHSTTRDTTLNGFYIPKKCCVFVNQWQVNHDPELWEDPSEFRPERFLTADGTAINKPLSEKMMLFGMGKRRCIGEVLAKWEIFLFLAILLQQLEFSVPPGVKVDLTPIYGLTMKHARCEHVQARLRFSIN

Candida albicans [15] = test: Ratio of MFC for Candida albicans 904 to MIC for Candida albicans 904 in presence of fluconazole; type: functional
Candida albicans [16] = test: Antifungal activity against fluconazole-resistant Candida albicans 904 assessed as inhibition of fungal growth by checker board microdilution assay; type: functional
Candida albicans [17] = test: Synergetic antifungal activity against fluconazole-resistant Candida albicans 632 assessed as fractional inhibitory concentration index in presence of fluconazole by checker board microdilution assay; type: functional
A549 = test: Cytotoxicity against human A549 cell assessed as inhibition of cell growth after 24 hrs by MTT assay; type: functional, cell-based; conditions: A549, 24 h
Candida albicans [18] = test: Fungicidal activity against Candida albicans 904 assessed as colony forming at 4 times MIC in presence of fluconazole incubated for 48 hrs by time-kill curve assay; type: functional
Candida albicans [19] = test: Fungicidal activity against Candida albicans 904 assessed as colony forming at 4 times MIC incubated for 48 hrs by time-kill curve assay; type: functional
HepG2 = test: Cytotoxicity against human HepG2 cell assessed as inhibition of cell growth after 24 hrs by MTT assay; type: functional, cell-based; conditions: HepG2, 24 h
Candida albicans [20] = test: Potentiation of fluconazole-induced antifungal activity against fluconazole-resistant Candida albicans 632 assessed as fluconazole MIC by checker board microdilution assay; type: functional
[21] = Cytotoxicity against human BEAS-2B cell assessed as inhibition of cell growth after 24 hrs by MTT assay; type: toxicity, cell-based; conditions: BEAS-2B cells
Candida albicans [22] = test: Potentiation of fluconazole-induced antifungal activity against fluconazole-resistant Candida albicans 904 assessed as fluconazole MIC by checker board microdilution assay; type: functional
Candida albicans [23] = test: Synergistic antifungal activity against fluconazole-resistant Candida albicans 632 assessed as inhibition of fungal growth in presence of fluconazole by checker board microdilution assay; type: functional
CYP2C19 = CYP2C19 (Homo sapiens, UniProt P33261); test: Inhibition of CYP2C19 in human liver microsome at 10 uM using S-mephenytoin as substrate incubated for 10 mins in presence of NADPH cofactor by LC-MS/MS analysis; type: ADME; conditions: liver microsomes, probe S-mephenytoin
Sequence of CYP2C19 (P33261 whole entry): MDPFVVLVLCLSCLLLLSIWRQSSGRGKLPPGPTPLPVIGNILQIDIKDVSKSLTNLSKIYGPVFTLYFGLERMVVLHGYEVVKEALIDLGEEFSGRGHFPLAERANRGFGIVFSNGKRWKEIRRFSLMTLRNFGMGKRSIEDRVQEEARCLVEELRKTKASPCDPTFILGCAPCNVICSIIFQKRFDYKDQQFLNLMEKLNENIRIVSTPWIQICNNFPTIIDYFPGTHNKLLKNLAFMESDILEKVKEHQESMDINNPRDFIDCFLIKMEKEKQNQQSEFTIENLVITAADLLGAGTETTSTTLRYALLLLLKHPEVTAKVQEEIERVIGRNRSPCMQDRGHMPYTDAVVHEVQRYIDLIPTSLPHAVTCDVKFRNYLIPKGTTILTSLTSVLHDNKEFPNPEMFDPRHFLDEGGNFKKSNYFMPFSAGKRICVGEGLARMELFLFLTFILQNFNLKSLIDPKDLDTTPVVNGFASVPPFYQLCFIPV

[24] = Metabolic stability in human liver microsomes assessed as compound remaining in presence of NADPH cofactor under shaking condition for 10 mins measured after 60 mins by LC-MS/MS analysis; type: ADME, Microsome; conditions: time 70 min, read-out: Stability
CYP2C9 = CYP2C9 (Homo sapiens, UniProt P11712); test: Inhibition of CYP2C9 in human liver microsome at 10 uM using diclofenac as substrate incubated for 10 mins in presence of NADPH cofactor by LC-MS/MS analysis; type: ADME; conditions: liver microsomes, probe diclofenac
Sequence of CYP2C9 (P11712 whole entry): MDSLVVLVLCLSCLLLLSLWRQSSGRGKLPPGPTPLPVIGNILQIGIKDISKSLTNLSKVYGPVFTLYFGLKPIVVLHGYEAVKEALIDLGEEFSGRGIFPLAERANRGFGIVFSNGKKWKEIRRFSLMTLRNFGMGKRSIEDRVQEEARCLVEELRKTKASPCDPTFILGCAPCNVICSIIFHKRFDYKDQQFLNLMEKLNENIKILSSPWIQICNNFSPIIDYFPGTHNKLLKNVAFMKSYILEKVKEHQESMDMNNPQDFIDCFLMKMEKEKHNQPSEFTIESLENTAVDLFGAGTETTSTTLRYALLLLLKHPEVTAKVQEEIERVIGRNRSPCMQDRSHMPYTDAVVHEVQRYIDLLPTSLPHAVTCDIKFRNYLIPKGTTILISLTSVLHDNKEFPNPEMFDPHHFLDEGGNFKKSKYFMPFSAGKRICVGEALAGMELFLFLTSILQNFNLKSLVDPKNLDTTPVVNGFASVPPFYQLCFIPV

Candida albicans [25] = test: Synergistic antibiofilm activity in Candida albicans 904 assessed as downregulation of CPH1 at 32 ug/ml incubated for 24 hrs in presence of fluconazole by RT-PCR analysis; type: functional, organism-based; conditions: dose 32.0 µg/ml

| SMILES | CLint [1] [µL/min/mg] | MIC80 (Candida albicans [2]) [µg/mL] | MIC50 (Candida albicans [3]) [µg/mL] | Activity (Candida albicans [4]) | MIC80 (Candida albicans [5]) [µg/mL] | MIC80 (Candida albicans [6]) [µg/mL] | MIC80 (Candida albicans [7]) [µg/mL] | MIC50 (Candida albicans [8]) [µg/mL] | MIC80 (Candida albicans [9]) [µg/mL] | half-life [10] [h] | IC50 (MCF7) [µM] | inhibition at 10 min, 10 µM (CYP2D6) [%] | IC50 at 24 h [11] [µM] | fractional inhibitory concentration index (FICI) (Candida albicans [12]) | Activity (Candida albicans [13]) | IC50 (RAW264.7) [µM] | MIC80 (Candida albicans [14]) [µg/mL] | inhibition at 10 min, 10 µM (CYP1A2) [%] | Ratio (Candida albicans [15]) | MIC80 (Candida albicans [16]) [µg/mL] | other results |
| --- | --- | --- | --- | --- | --- | --- | --- | --- | --- | --- | --- | --- | --- | --- | --- | --- | --- | --- | --- | --- | --- |
| CNC(=O)c1noc(-c2cc(-c3ccc(C)cc3)c(O)cc2O)c1-c1ccc(CN2CCOCC2)cc1 | 55.9 | 2 | > 64 | Active | 0.25 | 0.25 | > 64 | 4 | > 64 | > 4.8 | 21.5 | 86.3 | 8.63 | 0.039 | Active | 11.3 | 1 | 9.9 | 2 | > 64 | fractional inhibitory concentration index (FICI) (Candida albicans [17]): 0.016; IC50 (A549): 7.12 µM; MFC (Candida albicans [18]): 0.5 µg/mL; MFC (Candida albicans [19]): > 64 µg/mL; IC50 (HepG2): > 50 µM; MIC80 (Candida albicans [20]): 0.5 µg/mL; IC50 at 24 h [21]: 12.2 µM; MIC80 (Candida albicans [22]): 1 µg/mL; MIC80 (Candida albicans [23]): 0.5 µg/mL; inhibition at 10 min, 10 µM (CYP2C19): 18.6%; remaining at 1.167 h [24]: 19.1%; inhibition at 10 min, 10 µM (CYP2C9): 25.2%; Activity (Candida albicans [25]): Active |
| CCNC(=O)c1noc(-c2cc(-c3ccc(C)cc3)c(O)cc2O)c1-c1ccc(CN2CCOCC2)cc1 | 43.2 | 2 | > 64 | Active | 0.25 | 0.125 | > 64 | 1 | > 64 | > 4.8 | 34.1 | 36.9 | 21.3 | 0.018 | Active | 17.1 | 0.25 | 8 | 1 | > 64 | fractional inhibitory concentration index (FICI) (Candida albicans [17]): 0.033; IC50 (A549): 13.1 µM; MFC (Candida albicans [18]): 0.25 µg/mL; MFC (Candida albicans [19]): > 64 µg/mL; IC50 (HepG2): 17.4 µM; MIC80 (Candida albicans [20]): 2 µg/mL; IC50 at 24 h [21]: > 50 µM; MIC80 (Candida albicans [22]): 2 µg/mL; MIC80 (Candida albicans [23]): 0.125 µg/mL; inhibition at 10 min, 10 µM (CYP2C19): 22.2%; remaining at 1.167 h [24]: 27.4%; inhibition at 10 min, 10 µM (CYP2C9): 36.5%; Activity (Candida albicans [25]): Active |
